The source of these data is publication PMC11597879, “In Silico and In Vitro Investigation of Cytotoxicity and Apoptosis of Acridine/Sulfonamide Hybrids Targeting Topoisomerases I and II” (Pharmaceuticals, 2024).

For one data set, the target named is T1, human Topo-II (Homo sapiens, UniProt P11388).
T1 construct: purchased TopoGEN TG1009
The data set can be described thus: Topoisomerase II inhibitory assay (supercoiled pHot1 DNA, gel electrophoresis). As to conditions: 37 °C 30 min. It counts as biochemical. The source says:
(§1) Subsequently, these compounds were employed to evaluate their capacity to inhibit topoisomerase activity at the established IC50, using supercoiled DNA as a substrate. The resulting DNA products were separated via 1% gel electrophoresis and stained with ethidium bromide. […] To evaluate the catalytic activity of Topo-I, supercoiled DNA served as the substrate. Commercial samples of Topo I and supercoiled DNA were provided by […], TopoGEN, Inc. (Columbus, OH, USA).
To assess the Topo-II activity, a typical enzyme reaction was set up using human Topo-II, supercoiled pHot1 DNA as the substrate, the test drug, and the assay buffer. […] Following that, the DNA was stained and ran on a 1% agarose gel for one to two hours using a Bio-Rad gel electrophoresis apparatus. Both supercoiled and linear DNA strands were included in the gel to serve as indicators for DNA-Topo-II intercalation.

The next data set concerns the target T2, Topo-I (Homo sapiens, UniProt P11387).
T2 construct: purchased TopoGEN, Inc. (Columbus, OH, USA) TG1018-1A
T2 sequence (P11387 1-765): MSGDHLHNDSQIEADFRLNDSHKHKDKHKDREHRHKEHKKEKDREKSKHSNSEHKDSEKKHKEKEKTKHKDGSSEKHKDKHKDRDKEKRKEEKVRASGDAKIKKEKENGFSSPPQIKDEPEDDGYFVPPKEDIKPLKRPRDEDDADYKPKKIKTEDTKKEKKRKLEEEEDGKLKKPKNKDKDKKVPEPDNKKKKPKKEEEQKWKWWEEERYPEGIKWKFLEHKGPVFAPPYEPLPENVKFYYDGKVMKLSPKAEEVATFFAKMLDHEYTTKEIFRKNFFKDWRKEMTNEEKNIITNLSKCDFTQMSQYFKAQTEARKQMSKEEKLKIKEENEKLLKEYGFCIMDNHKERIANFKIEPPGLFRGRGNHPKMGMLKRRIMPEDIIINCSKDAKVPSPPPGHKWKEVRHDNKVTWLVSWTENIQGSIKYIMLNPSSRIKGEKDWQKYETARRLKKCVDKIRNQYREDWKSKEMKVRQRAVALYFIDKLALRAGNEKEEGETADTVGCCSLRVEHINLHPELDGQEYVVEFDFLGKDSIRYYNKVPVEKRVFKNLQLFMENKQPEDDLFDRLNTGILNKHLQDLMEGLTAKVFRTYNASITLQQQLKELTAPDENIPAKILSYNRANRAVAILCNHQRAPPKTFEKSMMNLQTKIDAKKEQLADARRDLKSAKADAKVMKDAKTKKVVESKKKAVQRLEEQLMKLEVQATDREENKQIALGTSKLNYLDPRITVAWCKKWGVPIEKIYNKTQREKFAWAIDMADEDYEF
The data set can be described thus: Topoisomerase I inhibitory assay (supercoiled DNA, gel electrophoresis). It is filed as biochemical. The following applies: supercoiled DNA substrate, 37 °C 30 min.
Text: as §1
To visualize the cleavage products after incubation, we used 1% agarose gel electrophoresis to separate the samples.

In the next data set the test system is MCF-7 cells. Set-up: method as in earlier work. The following applies: MTT, 48 h exposure; cited from earlier work.
A further data set deals with HCT-116 cells. Set-up: method as in earlier work. As to conditions: MTT, 48 h exposure; cited from earlier work.
For data set [1], the system named is HepG2 cells. Details: method as in earlier work. As to conditions: MTT, 48 h exposure; read-out: IC50 HepG-2; cited from earlier work.
Data set [2] has as its system HepG2 cells. Briefly: Cell cycle analysis (PI, flow cytometry). The following applies: HepG2, 24 h treatment, DNA content percentage.
Protocol: Subsequently, the cells were harvested, fixed in 70% ethanol, and incubated for 12 h at 4 °C. After fixation, the cells were centrifuged, and the cell pellets were washed and resuspended in 0.5 mL of cold phosphate-buffered saline (PBS). The cells were then stained with 5 μg/mL of propidium iodide (PI; Sigma, Panama City, Panama), and the DNA content was determined using a BD FACSCalibur flow cytometer (Becton Dickinson, Franklin Lakes, NJ, USA). Data analysis was performed using CellQuest software, and 10,000 events were analyzed for each sample.
The subject of data set [3] is HepG2 cells. The data set can be described thus: Annexin V-FITC/PI apoptosis assay. It is filed as cell-based, human. As to conditions: for apoptosis as extent of the level observed with SAHA / necrosis as extent of the level observed with SAHA: HepG2, relative to SAHA positive control; for cells in early apoptotic stage: lower right quadrant; for cells in late apoptotic stage: upper right quadrant. The protocol:
An Annexin V-FITC assay was utilized to detect apoptosis in HepG2 cells. The cells were exposed to compounds 8b (3.4 µM) and 7c (7.3 µM) for 24 h, with untreated cells and cells treated with SAHA serving as negative and positive controls, respectively. After staining with propidium iodide (PI) and Annexin V-FITC, cell apoptosis was assessed via flow cytometry.

In another data set the test system is THLE-2 cell line. Briefly: MTT cytotoxicity against normal cell line THLE-2. It counts as cell-based, human. The following applies: normal liver epithelial cells. The protocol:
These cells were cultured in Dulbecco’s Modified Eagle’s Medium (DMEM) from Invitrogen/Life Technologies, supplemented with 10% Hyclone fetal bovine serum, […], and 1% penicillin and streptomycin. For experimental purposes, the cells were seeded in 96-well tissue culture plates at an approximate density of 5 × 10^3 cells per well and were allowed to incubate overnight. The following day, the culture medium was replaced with fresh medium containing varying concentrations of the synthesized compounds to be tested for their toxicity. After 48 h of exposure, the medium was removed, and the cells were washed twice with phosphate-buffered saline (PBS). A new medium containing MTT solution was added, and the cells were further incubated for 4 h. The cellular viability and toxicity in response to each compound were determined using ELISA microplate reader- Bioline by measuring the absorbance at a wavelength of 450 nm.

The mark [4] stands for this setting: HepG2, 8b 3.4 µM, 7c 7.3 µM, 24 h (Figure 2 legend: 72 h).

Molecules are shown by their SMILES.

T1 sequence (P11388 whole entry): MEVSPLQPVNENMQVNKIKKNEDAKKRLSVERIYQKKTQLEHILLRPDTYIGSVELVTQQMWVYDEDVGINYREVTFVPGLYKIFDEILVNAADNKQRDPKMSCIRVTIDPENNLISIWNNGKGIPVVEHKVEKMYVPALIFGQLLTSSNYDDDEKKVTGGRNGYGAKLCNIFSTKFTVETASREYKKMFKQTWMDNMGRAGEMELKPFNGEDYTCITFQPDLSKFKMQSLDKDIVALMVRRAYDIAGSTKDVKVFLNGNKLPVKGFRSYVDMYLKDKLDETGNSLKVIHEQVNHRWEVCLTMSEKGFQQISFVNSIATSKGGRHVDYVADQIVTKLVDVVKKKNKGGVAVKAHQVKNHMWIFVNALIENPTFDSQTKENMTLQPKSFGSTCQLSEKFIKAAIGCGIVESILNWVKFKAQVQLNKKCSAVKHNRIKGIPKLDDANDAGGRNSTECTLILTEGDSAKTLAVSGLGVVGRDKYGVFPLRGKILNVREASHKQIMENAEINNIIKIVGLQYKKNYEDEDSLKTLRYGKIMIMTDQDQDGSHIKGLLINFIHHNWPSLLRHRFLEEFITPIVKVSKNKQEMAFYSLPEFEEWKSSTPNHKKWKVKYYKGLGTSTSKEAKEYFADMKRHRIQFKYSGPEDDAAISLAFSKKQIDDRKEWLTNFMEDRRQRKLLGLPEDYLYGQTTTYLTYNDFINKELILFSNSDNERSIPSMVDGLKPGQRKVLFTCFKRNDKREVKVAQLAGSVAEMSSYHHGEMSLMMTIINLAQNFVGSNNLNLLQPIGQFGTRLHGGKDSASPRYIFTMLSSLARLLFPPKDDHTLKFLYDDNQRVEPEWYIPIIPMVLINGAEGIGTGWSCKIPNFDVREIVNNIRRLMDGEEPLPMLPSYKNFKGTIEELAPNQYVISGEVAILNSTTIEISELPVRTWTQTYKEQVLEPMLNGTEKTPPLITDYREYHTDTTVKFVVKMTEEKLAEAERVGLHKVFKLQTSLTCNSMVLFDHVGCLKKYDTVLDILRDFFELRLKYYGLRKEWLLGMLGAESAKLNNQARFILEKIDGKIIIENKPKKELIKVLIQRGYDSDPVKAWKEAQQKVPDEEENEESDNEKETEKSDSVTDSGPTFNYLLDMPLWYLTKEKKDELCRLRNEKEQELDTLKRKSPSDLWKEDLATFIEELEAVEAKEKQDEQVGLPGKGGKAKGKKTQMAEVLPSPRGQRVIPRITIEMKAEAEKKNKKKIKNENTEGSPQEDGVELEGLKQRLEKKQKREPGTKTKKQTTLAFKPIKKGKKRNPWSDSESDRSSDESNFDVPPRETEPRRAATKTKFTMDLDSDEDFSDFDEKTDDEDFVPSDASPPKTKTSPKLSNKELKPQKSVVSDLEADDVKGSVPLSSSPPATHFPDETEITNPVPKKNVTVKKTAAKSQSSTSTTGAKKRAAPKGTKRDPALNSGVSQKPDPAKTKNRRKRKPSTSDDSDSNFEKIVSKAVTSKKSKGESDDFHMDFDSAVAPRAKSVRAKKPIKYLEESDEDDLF

By IC50 is commonly meant the point on the concentration scale where inhibition reaches its midpoint. With `N.N.[Cl][Pt][Cl]` [Cisplatin, reference compound], the figures for the concentration for half-maximal inhibition (IC50) on human Topo-II and against Topo-I were 11.3 ± 0.62 µM and 5.71 ± 0.31 µM, respectively.

Consider `Nc1ccc(Nc2c3ccccc3nc3ccccc23)cc1` [Compound 5b], for which the IC50 with MCF-7 cells was 5.88 ± 0.4 µM; in the data set on HCT-116 cells, 8.93 ± 0.8 µM; with HepG2 cells [1], 8.3 ± 0.7 µM.

With `S=C(Nc1ccccc1)Nc1ccc(Cc2ccc(Nc3c4ccccc4nc4ccccc34)cc2)cc1` [Compound 6a], the IC50 with MCF-7 cells was 40.9 ± 3.8 µM; against human Topo-II, 101 ± 5.51 µM; against Topo-I it was 27.6 ± 1.5 µM; in the data set on HCT-116 cells, 47.2 ± 3.9 µM; with HepG2 cells [1], 36.7 ± 3.5 µM.

As to `S=C(Nc1ccccc1)Nc1ccc(Nc2c3ccccc3nc3ccccc23)cc1` [Compound 6b], the IC50 in the data set on MCF-7 cells is 16.5 ± 1.5 µM; against human Topo-II, 24.5 ± 1.34 µM; on Topo-I, 4.17 ± 0.23 µM; in the data set with HCT-116 cells, 13.1 ± 1.2 µM; in the data set with HepG2 cells [1], 18 ± 1.7 µM.

By melting point is commonly meant the temperature of the solid-liquid transition. `O=[N+]([O-])c1ccccc1S(=O)(=O)Nc1ccc(Cc2ccc(Nc3c4ccccc4nc4ccccc34)cc2)cc1` [Compound 7a] displayed a melting point of 172 °C. In the data set with MCF-7 cells, the IC50 is 88.4 ± 5.1 µM. Further, the half-maximal inhibitory concentration (IC50) on human Topo-II worked out at 8.07 ± 0.44 µM. This compound returned an IC50 against Topo-I of 18.4 ± 1 µM. The IC50 in the data set with HCT-116 cells was 72.2 ± 4.7 µM. Besides, in the data set on HepG2 cells [1], the IC50 was 62.3 ± 4.4 µM.

In the case of `Cc1ccc(S(=O)(=O)Nc2ccc(Cc3ccc(Nc4c5ccccc5nc5ccccc45)cc3)cc2)cc1` [Compound 7b], the melting point was above 250 °C. The IC50 with MCF-7 cells was 73.8 ± 4.5 µM. Moreover, half-maximal inhibition at human Topo-II (IC50) required 234 ± 12.7 µM. This compound also returned an IC50 at Topo-I of 82.5 ± 4.49 µM. Moreover, the IC50 in the data set with HCT-116 cells is 88.5 ± 4.8 µM. Also, in the data set with HepG2 cells [1], the IC50 was 93.6 ± 5.3 µM.

Take `CC(=O)Nc1ccc(S(=O)(=O)Nc2ccc(Cc3ccc(Nc4c5ccccc5nc5ccccc45)cc3)cc2)cc1` [Compound 7c]: the IC50 is 29.1 ± 2.7 µM in the data set with MCF-7 cells; 7.33 ± 0.4 µM against human Topo-II; 16.6 ± 0.9 µM against Topo-I; 40.6 ± 3.7 µM with HCT-116 cells; 55.5 µM in the data set with THLE-2 cell line (Homo sapiens, THLE-2, 48 h); 104 ± 5.86 µM with THLE-2 cell line (48 h). Besides, the IC50 in the data set with HepG2 cells [1] was 31.1 ± 3.1 µM. Besides, the “%G2/M” value with HepG2 cells [2] is recorded as 28.12%. Moreover, the “%Pre-G1” value with HepG2 cells [2] is recorded as 19.61%. Also, the “%S” value in the data set on HepG2 cells [2] stood at 29.27%. Further, the “G0–G1” value in the data set on HepG2 cells [2] is reported as 42.61%. The “apoptosis as extent of the level observed with SAHA” value in the data set with HepG2 cells [3] stood at 55%. In the data set on HepG2 cells [3], the “necrosis as extent of the level observed with SAHA” value is listed as 88%. Moreover, the “cells in early apoptotic stage” value in the data set on HepG2 cells [3] (setting [4]) is 1.6%. The “cells in necrotic stage” value in the data set with HepG2 cells [3] (HepG2, 8b 3.4 µM, 7c 7.3 µM, 24 h (Figure 2 legend: 72 h), upper left quadrant) was 5.9%. Besides, the “cells in late apoptotic stage” value with HepG2 cells [3] (setting [4]) amounted to 12%.

For the compound `O=S(=O)(Nc1ccc(Cc2ccc(Nc3c4ccccc4nc4ccccc34)cc2)cc1)c1ccc(N=Nc2ccccc2)cc1` [Compound 7d], the IC50 in the data set on MCF-7 cells was 33.6 ± 3.3 µM; against human Topo-II, 21.6 ± 1.18 µM; on Topo-I it was 7.67 ± 0.42 µM; in the data set on HCT-116 cells, 58 ± 4.3 µM; in the data set on HepG2 cells [1], 45.5 ± 3.9 µM.

For `CC(C)c1cc(C(C)C)c(S(=O)(=O)Nc2ccc(Cc3ccc(Nc4c5ccccc5nc5ccccc45)cc3)cc2)c(C(C)C)c1` [Compound 7e], the IC50 with MCF-7 cells is 50.8 ± 4 µM; against human Topo-II it was 38.7 ± 2.1 µM; on Topo-I it was 42.2 ± 2.29 µM; in the data set on HCT-116 cells, 66.7 ± 4.5 µM; with HepG2 cells [1], 55.4 ± 4.2 µM.

On to `O=[N+]([O-])c1ccccc1S(=O)(=O)Nc1ccc(Nc2c3ccccc3nc3ccccc23)cc1` [Compound 8a], for which the IC50 with MCF-7 cells was 10.5 ± 1 µM; at human Topo-II it was 10.9 ± 0.59 µM; against Topo-I, 15 ± 0.81 µM; in the data set on HCT-116 cells, 15.2 ± 1.6 µM; in the data set on HepG2 cells [1] it was 20.6 ± 1.8 µM.

Consider `Cc1ccc(S(=O)(=O)Nc2ccc(Nc3c4ccccc4nc4ccccc34)cc2)cc1` [Compound 8b], for which the IC50 is 8.83 ± 0.9 µM in the data set on MCF-7 cells; 16.2 ± 0.88 µM on human Topo-II; 3.41 ± 0.19 µM against Topo-I; 9.39 ± 0.9 µM with HCT-116 cells; 104 µM in the data set with THLE-2 cell line (Homo sapiens, THLE-2, 48 h); 55.5 ± 3.13 µM in the data set on THLE-2 cell line (48 h). In addition, in the data set on HepG2 cells [1], the IC50 is 14.5 ± 1.4 µM. Also, in the data set with HepG2 cells [2], the “%G2/M” value was 9.66%. Besides, the “%Pre-G1” value in the data set with HepG2 cells [2] is 26.95%. Besides, the “%S” value with HepG2 cells [2] is on record as 39.15%. Moreover, the “G0–G1” value in the data set with HepG2 cells [2] is 51.19%. Further, the “apoptosis as extent of the level observed with SAHA” value in the data set with HepG2 cells [3] is recorded as 79%. Moreover, the “necrosis as extent of the level observed with SAHA” value with HepG2 cells [3] came to 46%. The “cells in early apoptotic stage” value in the data set with HepG2 cells [3] (setting [4]) worked out at 3.5%. In the data set with HepG2 cells [3] (setting [4]), the “cells in late apoptotic stage” value was 19.6%.

Regarding `O=S(=O)(Nc1ccc(Nc2c3ccccc3nc3ccccc23)cc1)c1ccc(N=Nc2ccccc2)cc1` [Compound 8c], the IC50 in the data set with MCF-7 cells was 25.5 ± 2.4 µM; on human Topo-II, 22 ± 1.2 µM; on Topo-I, 21.4 ± 1.17 µM; with HCT-116 cells, 35.7 ± 3.4 µM; in the data set with HepG2 cells [1], 22.4 ± 2 µM.

For the compound `CC(C)c1cc(C(C)C)c(S(=O)(=O)Nc2ccc(Nc3c4ccccc4nc4ccccc34)cc2)c(C(C)C)c1` [Compound 8d], the IC50 with MCF-7 cells was 19.7 ± 1.7 µM; on human Topo-II it was 32.7 ± 1.78 µM; at Topo-I, 11.9 ± 0.65 µM; with HCT-116 cells, 29.9 ± 2.8 µM; in the data set on HepG2 cells [1] it was 23.1 ± 2.2 µM.

As to `COc1cccc2c1C(=O)c1c(O)c3c(c(O)c1C2=O)C[C@@](O)(C(=O)CO)C[C@@H]3O[C@H]1C[C@H](N)[C@H](O)[C@H](C)O1` [Doxorubicin, reference compound], the IC50 in the data set with HepG2 cells [1] was 4.5 ± 0.2 µM.

In the case of `O=C(CCCCCCC(=O)Nc1ccccc1)NO` [SAHA, reference compound], in the data set on HepG2 cells [2], the “%G2/M” value was 6.59%, the “%Pre-G1” value is on record as 34.12%, the “%S” value is given as 46.39% and the “G0–G1” value worked out at 47.02%. In the data set on THLE-2 cell line (48 h), this compound had an IC50 of 33.6 ± 1.89 µM.
